The target of one series is T1, recombinant human PDE5 (Homo sapiens, UniProt O76074).
T1 construct: host or cells: Saccharomyces cerevisiae strain BJ2-54 (ATCC 74465), described as an exemplary method
The series can be described thus: Inhibitory effect on cGMP-PDE (PDE5 inhibition, one-step assay). Format: biochemical. The note with it: in vitro test; human recombinant PDE5, 0.15 μM 8-[H3]-cGMP, 30 minutes incubation; read-out: IC50 values versus PDE5. The protocol: The compounds of structural formula (I) were tested for an ability to inhibit PDE5. The ability of a compound to inhibit PDE5 activity is related to the IC50 value for the compound, i.e., the concentration of inhibitor required for 50% inhibition of enzyme activity. The IC50 value for compounds of structural formula (I) were determined using recombinant human PDE5.
The production of recombinant human PDEs and the IC50 determinations can be accomplished by well-known methods in the art. Exemplary methods are described as follows:
Phosphodiesterase activity of the preparations was determined as follows. PDE assays utilizing a charcoal separation technique were performed essentially as described in Loughney et al. (1996). […] The [32P]5′-AMP or [32P]5′-GMP then was quantitatively converted to free [32P] phosphate and unlabeled adenosine or guanosine by the action of snake venom 5′-nucleotidase. […] PDE enzyme was present in quantities that yield <30% total hydrolysis of substrate (linear assay conditions). […] After centrifugation (750×g for 3 minutes) to sediment the charcoal, a sample of the supernatant was taken for radioactivity determination in a scintillation counter and the PDE activity was calculated.
cGMP-PDE activity of compounds of the present invention was measured using a one-step assay adapted from Wells et al., Biochim. […]

pIC50: −log10 of the molar value.

Turning to `O=C1[C@H]2Cc3c([nH]c4ccccc34)[C@@H](c3ccc4c(c3)OCO4)N2C(=O)C2CNCCN12` (mixture of isomers) [Example 1, (5aR,12R)-12-Benzo(1,3)dioxol-5-yl-5,5a,8,9,10,10a,12,13-octahydro-7H-6a,9,11a,13-tetraza-indeno[1,2-b]anthracene-6,11-dione], the melting point (as a rule, the temperature of the solid-liquid transition) fell in the range of 226 to 237 °C. Further, the negative logarithm of the IC50 (pIC50) (usually the negative decadic logarithm of the IC50, by convention in mol/L) at recombinant human PDE5 was 8.77.

On to `COc1ccc(CC(=O)N2CCN3C(=O)[C@H]4Cc5c([nH]c6ccccc56)[C@@H](c5ccc6c(c5)OCO6)N4C(=O)C3C2)cc1OC` (stereo partly drawn) [Example 3, (5aR,12R)-12-Benzo(1,3)dioxol-5-yl-9-[2-(3,4-dimethoxyphenyl)ethanoyl]-5,5a,8,9, 10, 10a,12,13-octahydro-7H-6a,9,11a,13-tetraaza-indeno[1,2-b]anthracene-6,11-dione], for which the melting point lay within 284 to 289 °C. In addition, on recombinant human PDE5, the pIC50 was 8.41.

Values taken from patent US6825197B2, “Cyclic GMP-specific phosphodiesterase inhibitors” (Lilly ICOS LLC, priority 2000, dated 2004).
